{"source": "paper PMC9731865", "about": "“Gambogic acid and juglone inhibit RNase P through distinct mechanisms” (The Journal of Biological Chemistry, 2022)", "key": {"T. maritima RNase P": {"tested_on": "T. maritima RNase P", "assay": "T. maritima RNase P inhibition (literature)", "format": "biochemical", "details": "own PRORP IC50 against the cited T. maritima IC50 of 12.8 μM (ref 28)"}, "PRORP1 C222A/C353A": {"molecular_target": "T1, PRORP1 C222A/C353A (Arabidopsis thaliana, UniProt Q66GI4, C222A/C353A)", "T1 construct": "made in house", "T1 sequence (Q66GI4 77-572 C222A/C353A)": "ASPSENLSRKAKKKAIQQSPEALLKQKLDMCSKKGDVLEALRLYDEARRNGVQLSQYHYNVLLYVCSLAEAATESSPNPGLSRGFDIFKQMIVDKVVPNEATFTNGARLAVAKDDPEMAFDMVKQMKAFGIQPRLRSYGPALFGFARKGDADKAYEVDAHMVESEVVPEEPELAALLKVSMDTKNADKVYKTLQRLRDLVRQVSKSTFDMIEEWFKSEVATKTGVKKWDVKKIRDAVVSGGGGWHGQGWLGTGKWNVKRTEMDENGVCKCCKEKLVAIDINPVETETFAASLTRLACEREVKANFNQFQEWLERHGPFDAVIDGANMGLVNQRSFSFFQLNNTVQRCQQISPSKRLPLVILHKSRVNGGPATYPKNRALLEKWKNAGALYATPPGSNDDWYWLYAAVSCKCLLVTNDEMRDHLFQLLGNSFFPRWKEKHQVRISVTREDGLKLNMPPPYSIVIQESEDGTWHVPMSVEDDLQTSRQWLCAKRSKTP", "assay": "Time-dependent inactivation by juglone, PRORP1 C222A/C353A", "format": "biochemical, A. thaliana", "procedure": "(§1) Given the multiple sites of cysteine modification, we wanted to identify the one(s) that potentially play a significant role in PRORP1 inactivation. Therefore, several cysteine-to-alanine point mutants were expressed, purified, and subjected to inhibition studies. We tested both single-site (C353A and C373A) and double-site (C353A/C373A and C222A/C353A) mutations. […] The value of kinact,app for each PRORP1 at varied concentrations of juglone was determined by fitting a single exponential equation (Equation 5) to the data (Fig. 10A). Unexpectedly, the values of kinact/KI (reflecting the inhibition of E + I to form EI∗) increased for a number of the PRORP1 variants: wildtype (0.001 ± 0.00004 μM^-1 min^-1), C353A (0.005 ± 0.002 μM^−1 min^−1), C373A (0.002 ± 0.0004 μM^-1 min^−1), C222A/C353A (0.003 ± 0.0001 μM^−1 min^−1), and C353A/C373A (0.0008 ± 0.0002 μM^-1 min^−1). These modest increases could be due to a decrease in the KI value or an increase in the value of kinact. […] Although, we cannot discount the possibility, however unlikely, that juglone may employ a mode of inhibition beyond cysteine residue modification that our crystal structures fail to capture.\n(§2) Figure 10 Effects of PRORP1 cysteine mutations on juglone inactivation. […]\n(§3) For the analysis of juglone, PRORP1 activity was measured with varying preincubation time and juglone concentration. […]"}, "PRORP1 C353A/C373A": {"molecular_target": "T2, PRORP1 C353A/C373A (Arabidopsis thaliana, UniProt Q66GI4, C353A/C373A)", "T2 construct": "made in house", "T2 sequence (Q66GI4 77-572 C353A/C373A)": "as the sequence (Q66GI4 77-572 C222A/C353A) above, with A146C, C297A counted along it", "assay": "Time-dependent inactivation by juglone, PRORP1 C353A/C373A", "format": "biochemical, A. thaliana", "procedure": "as §1, §2, §3"}}}
{"smiles": "O=C1C=CC(=O)c2c(O)cccc21", "note": "[juglone, 5-hydroxy-1,4-naphthalenedione]", "values": [{"measurement": "times more potent against PRORP than T. maritima RNase P", "setting": "T. maritima RNase P", "value": "about 10 times"}, {"measurement": "kinact/KI", "setting": "PRORP1 C222A/C353A", "value": 50, "unit": "M⁻¹ s⁻¹"}, {"measurement": "inhibition at time 0", "setting": "PRORP1 C222A/C353A; double-cysteine mutation (C222A/C353A)", "value": "not observed"}, {"measurement": "kinact/KI", "setting": "PRORP1 C353A/C373A", "value": 13.3, "unit": "M⁻¹ s⁻¹"}, {"measurement": "inhibition at time 0", "setting": "PRORP1 C353A/C373A; double-cysteine mutation (C353A/C373A)", "value": "not observed"}]}
